Results reported in ChEMBL document CHEMBL2029232, “Identification of small-molecule inhibitors of the steroidogenic acute regulatory protein (STARD1) by structure-based design” (Bioorg Med Chem Lett, 2012).
Active and inactive are the calls of the source. The rule behind the calls is not given here.

Key:
[1] = target: T1, Steroidogenic acute regulatory protein, mitochondrial (Mus musculus) (UniProt P51557); test: Inhibition of STAR in mouse MA-10 cells assessed as inhibition of dbcAMP-stimulated […] at 10 uM after 2 hrs by RIA; assay type: cell-based
T1 sequence (whole entry): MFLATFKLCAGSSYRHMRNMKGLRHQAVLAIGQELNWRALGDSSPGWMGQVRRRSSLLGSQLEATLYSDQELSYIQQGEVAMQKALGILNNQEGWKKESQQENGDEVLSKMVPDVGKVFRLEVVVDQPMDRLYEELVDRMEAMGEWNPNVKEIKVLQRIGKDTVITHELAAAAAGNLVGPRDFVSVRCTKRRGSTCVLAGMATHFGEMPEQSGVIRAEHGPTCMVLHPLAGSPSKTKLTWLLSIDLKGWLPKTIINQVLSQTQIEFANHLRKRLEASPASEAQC

[2] = Inhibition of 22R-hydroxycholesterol-induced steroidogenesis in mouse MA-10 cells assessed as progesterone synthesis per mg of protein at 10 uM after 2 hrs by RIA; assay type: cell-based; conditions: ma-10, 2 h

| SMILES | inhibition [1] | Activity [2] |
| --- | --- | --- |
| CC(=O)O[C@H]1CC[C@@]2(C)C(=CC[C@H]3[C@@H]4CC(O)[C@H]([C@H](C)OC(C)=O)[C@@]4(C)CC[C@@H]32)C1 (stereo partly drawn) | inactive | – |
| C[C@]12CCC(=O)C=C1CC[C@@H]1[C@@H]2[C@@H](O)C[C@@]2(C)[C@H]1CC[C@]2(O)C(=O)CO | inactive | – |
| C[C@]12CC(O)[C@H]3[C@@H](CCC4=CC(=O)CC[C@@]43C)[C@@H]1CC[C@@H]2C(=O)O (stereo partly drawn) | inactive | – |
| CC(=O)OCC(=O)[C@H]1CC[C@H]2[C@@H]3CC=C4C[C@@H](O)CC[C@]4(C)[C@H]3CC[C@]12C | 50% | 1301 ng |
| C[C@H](CCC(=O)O)[C@H]1CC[C@H]2[C@@H]3CC=C4C[C@@H](O)CC[C@]4(C)[C@H]3CC[C@]12C | inactive | – |
| C[C@]12CC[C@H]3[C@@H](CC=C4C[C@@H](O)CC[C@@]43C)[C@@H]1C/C(=C/c1ccc(OC(F)F)cc1)[C@@H]2O | 50% | 923 ng |
